Results taken from ChEMBL document CHEMBL4813985, “Lead optimization generates selenium-containing miconazole CYP51 inhibitors with improved pharmacological profile for the treatment of fungal infections” (Eur J Med Chem, 2021).
In brackets after ≈: the same amount, converted by molar mass.

Assays:
[1] = tested on: Candida albicans; test: Antifungal activity against Candida albicans CPCC400616 measured after 24 hrs by broth microdilution assay; assay type: functional
[2] = tested on: Candida albicans; test: Antifungal activity against Candida albicans ATCC SC5314 measured after 24 hrs by broth microdilution assay; assay type: functional
[3] = tested on: [Candida] zeylanoides; test: Antifungal activity against Candida zeylanoides CMGCC2.3739 measured after 24 hrs by broth microdilution assay; assay type: functional; conditions: Dujonia zeylanoides
[4] = tested on: Cryptococcus neoformans; test: Antifungal activity against Cryptococcus neoformans CMGCC2.3161 measured after 72 hrs by broth microdilution assay; assay type: functional
[5] = tested on: Pichia kudriavzevii; test: Antifungal activity against Candida krusei AS2.1045 measured after 24 hrs by broth microdilution assay; assay type: functional
[6] = tested on: Nakaseomyces glabratus; test: Antifungal activity against Candida glabrata measured after 24 hrs by broth microdilution assay; assay type: functional
[7] = tested on: Candida parapsilosis; test: Antifungal activity against Candida parapsilosis ATCC 22019 measured after 24 hrs by broth microdilution assay; assay type: functional; conditions: Lodderomyces parapsilosis
[8] = tested on: Aspergillus fumigatus; test: Antifungal activity against Aspergillus fumigatus CMGCC3.7795 measured after 72 hrs by broth microdilution assay; assay type: functional
[9] = tested on: Candida albicans; test: Antifungal activity against fluconazole-resistant Candida albicans CaR assessed as inhibition of microbial growth after 24 hrs by broth microdilution method; assay type: functional
[10] = tested on: Candida albicans; test: Antifungal activity against fluconazole-resistant Candida albicans 17# assessed as inhibition of microbial growth after 24 hrs by broth microdilution method; assay type: functional
[11] = tested on: Candida albicans; test: Antifungal activity against fluconazole-resistant Candida albicans 632 assessed as inhibition of microbial growth after 24 hrs by broth microdilution method; assay type: functional
[12] = tested on: Candida albicans; test: Antifungal activity against fluconazole-resistant Candida albicans 901 assessed as inhibition of microbial growth after 24 hrs by broth microdilution method; assay type: functional
[13] = tested on: Candida albicans; test: Antifungal activity against fluconazole-resistant Candida albicans 904 assessed as inhibition of microbial growth after 24 hrs by broth microdilution method; assay type: functional
[14] = tested on: Candida albicans; test: Potency index, ratio of fluconazole MIC to test compound MIC for Candida albicans CPCC400616 measured after 24 hrs by broth microdilution assay; assay type: functional
[15] = tested on: HL-60; test: Cytotoxicity against human HL-60 cells assessed as reduction in cell viability incubated for 96 hrs by MTT assay; assay type: cell-based; conditions: HL-60, 96 h
[16] = tested on: PC-3; test: Cytotoxicity against human PC3 cells assessed as reduction in cell viability incubated for 96 hrs by MTT assay; assay type: cell-based; conditions: PC-3, 96 h
[17] = tested on: MCF-10A; test: Cytotoxicity against human MCF-10A cells assessed as reduction in cell viability incubated for 96 hrs by MTT assay; assay type: cell-based
[18] = tested on: MDA-MB-231; test: Cytotoxicity against human MDA-MB-231 cells assessed as reduction in cell viability incubated for 96 hrs by MTT assay; conditions: MDA-MB-231, 96 h
[19] = Hemolytic activity in rabbit RBC assessed as hemolysis ratio at 1 ug/ml measured after 3 hrs by microplate reader assay relative to control; assay type: ADME, cell-based, Oryctolagus cuniculus, Erythrocyte; conditions: rabbit red blood cells (erythrocytes), at 1 µg/mL, read-out: Activity
[20] = Hemolytic activity in rabbit RBC assessed as hemolysis ratio at 2 ug/ml measured after 3 hrs by microplate reader assay relative to control; assay type: ADME, cell-based, Oryctolagus cuniculus, Erythrocyte; conditions: rabbit red blood cells (erythrocytes), at 2 µg/mL, read-out: Activity
[21] = Hemolytic activity in rabbit RBC assessed as hemolysis ratio at 4 ug/ml measured after 3 hrs by microplate reader assay relative to control; assay type: ADME, cell-based, Oryctolagus cuniculus, Erythrocyte; conditions: rabbit red blood cells (erythrocytes), at 4 µg/mL, read-out: Activity
[22] = Hemolytic activity in rabbit RBC assessed as hemolysis ratio at 8 ug/ml measured after 3 hrs by microplate reader assay relative to control; assay type: ADME, cell-based, Oryctolagus cuniculus, Erythrocyte; conditions: rabbit red blood cells (erythrocytes), at 8 µg/mL, read-out: Activity
[23] = Hemolytic activity in rabbit RBC assessed as hemolysis ratio at 16 ug/ml measured after 3 hrs by microplate reader assay relative to control; assay type: ADME, cell-based, Oryctolagus cuniculus, Erythrocyte; conditions: rabbit red blood cells (erythrocytes), at 16 µg/mL, read-out: Activity
[24] = Metabolic stability in mouse liver microsomes assessed as half life; assay type: ADME, Microsome
[25] = Metabolic stability in mouse liver microsomes assessed as clearance; assay type: ADME, Microsome; conditions: read-out: CLH
[26] = tested on: Candida albicans; test: Anti-biofilm activity in Candida albicans CPCC400616 assessed as inhibition of biofilm formation incubated for 24 hrs with 1.5 hrs precultured fungal suspension by XTT assay; assay type: functional
[27] = tested on: Candida albicans; test: Anti-biofilm activity in Candida albicans CPCC400616 assessed as inhibition of biofilm formation incubated for 24 hrs with 3 hrs precultured fungal suspension by XTT assay; assay type: functional
[28] = tested on: Candida albicans; test: Anti-biofilm activity in Candida albicans CPCC400616 assessed as inhibition of biofilm formation incubated for 24 hrs with 6 hrs precultured fungal suspension by XTT assay; assay type: functional
[29] = tested on: Candida albicans; test: Anti-biofilm activity in Candida albicans CPCC400616 assessed as inhibition of biofilm formation incubated for 24 hrs with 24 hrs precultured fungal suspension by XTT assay; assay type: functional

| Structure (SMILES) | MIC [1] [µg/mL] | MIC [2] [µg/mL] | MIC [3] [µg/mL] | MIC [4] [µg/mL] | MIC [5] [µg/mL] | MIC [6] [µg/mL] | MIC [7] [µg/mL] | MIC [8] [µg/mL] | MIC [9] [µg/mL] | MIC [10] [µg/mL] | MIC [11] [µg/mL] | MIC [12] [µg/mL] | MIC [13] [µg/mL] | Ratio [14] | IC50 [15] [µM] | also measured |
| --- | --- | --- | --- | --- | --- | --- | --- | --- | --- | --- | --- | --- | --- | --- | --- | --- |
| Cc1ccccc1[Se]C(Cn1ccnc1)c1ccc(F)cc1F (centres undefined) | 0.13 (≈ 0.345 µM) | 0.02 (≈ 0.053 µM) | 0.5 (≈ 1.33 µM) | 0.5 (≈ 1.33 µM) | 0.02 (≈ 0.053 µM) | 1 (≈ 2.65 µM) | 0.13 (≈ 0.345 µM) | 8 (≈ 21.2 µM) | 8 | 4 | 4 | 2 | 1 | 8 | – | – |
| COc1cccc2c1C(=O)c1c(O)c3c(c(O)c1C2=O)C[C@@](O)(C(=O)CO)C[C@@H]3O[C@H]1C[C@H](N)[C@H](O)[C@H](C)O1 [DOXORUBICIN] | – | – | – | – | – | – | – | – | – | – | – | – | – | – | < 0.125 | IC50 [16]: 0.64 µM; IC50 [17]: 2.64 µM |
| COc1ccc([Se]C(Cn2ccnc2)c2ccc(F)cc2F)cc1 (centres undefined) | 1 (≈ 2.54 µM) | 0.03 (≈ 0.0763 µM) | 0.25 (≈ 0.636 µM) | 0.5 (≈ 1.27 µM) | 0.5 (≈ 1.27 µM) | 0.5 (≈ 1.27 µM) | 0.25 (≈ 0.636 µM) | 8 (≈ 20.3 µM) | 2 | 16 | 16 | 2 | 8 | 8 | – | – |
| Cc1ccc(C)c([Se]C(Cn2ccnc2)c2ccc(Cl)cc2Cl)c1 (centres undefined) | 0.25 (≈ 0.589 µM) | 0.03 (≈ 0.0707 µM) | 2 (≈ 4.71 µM) | 0.5 (≈ 1.18 µM) | 0.5 (≈ 1.18 µM) | 0.5 (≈ 1.18 µM) | 0.5 (≈ 1.18 µM) | 16 (≈ 37.7 µM) | 0.25 | 0.13 | 0.5 | 0.25 | 0.25 | 8 | 6.95 | IC50 [18]: 6.61 µM; IC50 ([16]; read-out: IC50): 7.25 µM; IC50 ([17]; read-out: IC50): 27.2 µM; hemolysis at 3 h, 1 ug/ml [19]: 0%; hemolysis at 3 h, 2 ug/ml [20]: 0.89%; hemolysis at 3 h, 4 ug/ml [21]: 84.4%; hemolysis at 3 h, 8 ug/ml [22]: 100%; hemolysis at 3 h, 16 ug/ml [23]: 100% |
| Fc1cccc([Se]C(Cn2ccnc2)c2ccc(Cl)cc2Cl)c1 (centres undefined) | 0.25 (≈ 0.604 µM) | 0.06 (≈ 0.145 µM) | 0.25 (≈ 0.604 µM) | 0.13 (≈ 0.314 µM) | 0.13 (≈ 0.314 µM) | 1 (≈ 2.41 µM) | 0.25 (≈ 0.604 µM) | 4 (≈ 9.66 µM) | 2 | 1 | 0.5 | 1 | 1 | 8 | 8.26 | IC50 [18]: 13.4 µM; IC50 ([16]; read-out: IC50): 20.4 µM; IC50 ([17]; read-out: IC50): 28.6 µM; hemolysis at 3 h, 1 ug/ml [19]: 0%; hemolysis at 3 h, 2 ug/ml [20]: 0%; hemolysis at 3 h, 4 ug/ml [21]: 87.7%; hemolysis at 3 h, 8 ug/ml [22]: 94.6%; hemolysis at 3 h, 16 ug/ml [23]: 100%; half-life [24]: 10.3 min; CLint scaled [25]: 531 mL/min/kg; MIC50 [26]: 4 µg/mL (≈ 9.66 µM); MIC80 [26]: 16 µg/mL (≈ 38.6 µM); MIC50 [27]: 8 µg/mL (≈ 19.3 µM); MIC80 [27]: 128 µg/mL (≈ 309 µM); MIC50 [28]: 128 µg/mL (≈ 309 µM); MIC80 [28]: > 128 µg/mL; MIC50 [29]: > 128 µg/mL; MIC80 [29]: > 128 µg/mL |
| Clc1ccc(C(Cn2ccnc2)[Se]c2ccccc2)c(Cl)c1 (centres undefined) | 0.25 (≈ 0.631 µM) | 0.13 (≈ 0.328 µM) | 0.25 (≈ 0.631 µM) | 0.13 (≈ 0.328 µM) | 0.13 (≈ 0.328 µM) | 1 (≈ 2.52 µM) | 0.25 (≈ 0.631 µM) | 8 (≈ 20.2 µM) | 1 | 1 | 1 | 2 | 2 | 8 | – | – |
| Cc1cccc([Se]C(Cn2ccnc2)c2ccc(F)cc2F)c1 (centres undefined) | 0.25 (≈ 0.663 µM) | 0.03 (≈ 0.0795 µM) | 0.5 (≈ 1.33 µM) | 0.25 (≈ 0.663 µM) | 0.06 (≈ 0.159 µM) | 1 (≈ 2.65 µM) | 0.25 (≈ 0.663 µM) | 8 (≈ 21.2 µM) | 4 | 8 | 0.5 | 4 | 1 | 8 | – | – |
| Cc1cccc(C)c1[Se]C(Cn1ccnc1)c1ccc(Cl)cc1Cl (centres undefined) | 0.13 (≈ 0.306 µM) | 0.06 (≈ 0.141 µM) | 4 (≈ 9.43 µM) | 0.5 (≈ 1.18 µM) | 2 (≈ 4.71 µM) | 0.13 (≈ 0.306 µM) | 0.5 (≈ 1.18 µM) | 8 (≈ 18.9 µM) | 4 | 4 | 8 | 16 | 8 | 8 | – | – |
